How the values were obtained:
[1] = tested on: human washed red blood cells (RBC, 2%) subjected to Alatina moseri venom; assay: Venom-induced hemolysis of washed RBC, 96-well plate, plasma hemoglobin read spectrophotometrically; type: cell-based; settings: 1 hour at 37° C., FIG. 1
Description: Using a 96-well plate, human washed red blood cells (RBC, 2%) were subjected to Alatina moseri venom (6.4 U/mL/%). And treated simultaneously with a dose of zinc gluconate administered to a final concentration of from 0 to 25 mM zinc gluconate in combination with a dose of copper gluconate administered to a final concentration of from 0 to 128 μM. At the end of the incubation period, the 96 well plate was centrifuged briefly at 4° C. to pellet red blood cells from plasma. Plasma hemoglobin levels were then determined spectrophotometrically.

[2] = tested on: Chironex fleckeri (the Australian box jellyfish) venom; assay: Survival time following lethal doses of venom in mice; type: in vivo
hemolytic toxins = settings: in the presence of 10 mM D-lactulose; cited from earlier work

zinc gluconate
inhibition of venom-induced hemolysis ([1]; zinc gluconate alone (baseline), 2% RBC, Alatina moseri venom 6.4 U/mL/%): baseline inhibition of venom-induced hemolysis

copper gluconate
inhibition of venom-induced hemolysis ([1]; copper gluconate (0 to 128 μM) with between 0 mM and 12.5 mM zinc gluconate): substantially increased the baseline inhibition | hemolysis after exposure to venom ([1]; up to 128 μM copper gluconate added to 25 mM zinc gluconate): practically eliminated hemolysis

Zinc
survival time [2]: increase survival time

OC[C@H]1O[C@@H](O[C@@H]2[C@@H](CO)O[C@](O)(CO)[C@H]2O)[C@H](O)[C@@H](O)[C@H]1O [D-lactulose]
hemolysis (hemolytic toxins): dramatic absence of hemolysis
